This note sets out measurements from patent publication US20250129078A1, “ERBB2 INHIBITORS” (Cogent Biosciences, Inc., priority 2023, published 2025).

The term IC50 denotes the point on the concentration scale where inhibition reaches its midpoint. Low readings indicate greater potency, high ones weaker potency.

One test deals with ErbB2 V777L (Homo sapiens (Human), UniProt P04626, V777L). Briefly: ErbB enzyme assay (CisBio HTRF-KinEASE-TK), ErbB2 V777L. The test is classed as biochemical. The gist of the method: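 HTRF KinEASE-TK tyrosine-kinase read-out of substrate phosphorylation after a final 1 h at ambient temperature, from the 655/620 nm emission ratio.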
(In general: Time-resolved FRET reads energy transfer from a long-lived donor to a nearby acceptor.)

A further test deals with EGFR WT (Homo sapiens (Human), UniProt P00533). Description: ErbB enzyme assay (CisBio HTRF-KinEASE-TK), EGFR WT. It counts as biochemical. Particulars: ATP at Km (25 μM), 1 h incubation. In a few lines: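 HTRF KinEASE-TK kinase reactions ran 1 h at ambient temperature with three-fold serial compound dilutions, then were quenched with Sa-XL665 and TK-Ab-Cryptate. After 1 h more, 655/620 nm time-resolved fluorescence gave percent of control; a 4-parameter logistic fit defined IC50 at 50 POC.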

Each structure is given as a SMILES string.

ErbB2 V777L, sequence (P04626 23-1255 V777L): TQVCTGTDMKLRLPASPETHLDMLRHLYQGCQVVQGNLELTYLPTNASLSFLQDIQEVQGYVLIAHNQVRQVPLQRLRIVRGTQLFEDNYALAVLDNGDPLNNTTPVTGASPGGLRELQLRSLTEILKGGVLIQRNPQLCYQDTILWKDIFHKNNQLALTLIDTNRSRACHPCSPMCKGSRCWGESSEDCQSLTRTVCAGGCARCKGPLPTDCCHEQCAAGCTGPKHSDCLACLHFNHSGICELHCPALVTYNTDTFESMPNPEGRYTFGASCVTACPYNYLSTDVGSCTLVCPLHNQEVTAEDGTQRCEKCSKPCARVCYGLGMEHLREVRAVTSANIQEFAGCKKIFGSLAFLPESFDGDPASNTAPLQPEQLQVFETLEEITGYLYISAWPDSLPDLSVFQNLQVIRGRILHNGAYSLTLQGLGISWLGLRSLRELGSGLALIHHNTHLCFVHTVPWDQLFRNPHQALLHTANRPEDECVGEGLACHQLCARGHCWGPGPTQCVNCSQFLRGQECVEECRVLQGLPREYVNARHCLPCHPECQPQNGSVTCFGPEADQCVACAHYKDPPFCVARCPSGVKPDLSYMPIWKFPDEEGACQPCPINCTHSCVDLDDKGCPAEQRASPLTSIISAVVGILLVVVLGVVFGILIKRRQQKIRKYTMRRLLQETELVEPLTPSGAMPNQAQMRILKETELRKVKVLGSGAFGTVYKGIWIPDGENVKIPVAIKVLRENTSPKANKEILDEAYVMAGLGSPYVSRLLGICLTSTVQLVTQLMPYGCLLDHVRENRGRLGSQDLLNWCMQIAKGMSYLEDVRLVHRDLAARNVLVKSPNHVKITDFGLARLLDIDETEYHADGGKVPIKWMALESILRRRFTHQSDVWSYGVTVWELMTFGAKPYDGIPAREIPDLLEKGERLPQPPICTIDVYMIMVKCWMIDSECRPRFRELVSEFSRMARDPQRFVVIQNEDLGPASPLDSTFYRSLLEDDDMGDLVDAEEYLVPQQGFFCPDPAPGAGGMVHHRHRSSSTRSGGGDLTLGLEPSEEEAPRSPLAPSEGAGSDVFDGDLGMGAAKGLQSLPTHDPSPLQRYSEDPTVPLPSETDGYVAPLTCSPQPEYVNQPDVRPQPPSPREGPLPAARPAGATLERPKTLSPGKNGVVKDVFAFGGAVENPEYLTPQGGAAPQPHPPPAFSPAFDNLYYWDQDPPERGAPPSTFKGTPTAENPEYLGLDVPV
EGFR WT, sequence (P00533 25-1210): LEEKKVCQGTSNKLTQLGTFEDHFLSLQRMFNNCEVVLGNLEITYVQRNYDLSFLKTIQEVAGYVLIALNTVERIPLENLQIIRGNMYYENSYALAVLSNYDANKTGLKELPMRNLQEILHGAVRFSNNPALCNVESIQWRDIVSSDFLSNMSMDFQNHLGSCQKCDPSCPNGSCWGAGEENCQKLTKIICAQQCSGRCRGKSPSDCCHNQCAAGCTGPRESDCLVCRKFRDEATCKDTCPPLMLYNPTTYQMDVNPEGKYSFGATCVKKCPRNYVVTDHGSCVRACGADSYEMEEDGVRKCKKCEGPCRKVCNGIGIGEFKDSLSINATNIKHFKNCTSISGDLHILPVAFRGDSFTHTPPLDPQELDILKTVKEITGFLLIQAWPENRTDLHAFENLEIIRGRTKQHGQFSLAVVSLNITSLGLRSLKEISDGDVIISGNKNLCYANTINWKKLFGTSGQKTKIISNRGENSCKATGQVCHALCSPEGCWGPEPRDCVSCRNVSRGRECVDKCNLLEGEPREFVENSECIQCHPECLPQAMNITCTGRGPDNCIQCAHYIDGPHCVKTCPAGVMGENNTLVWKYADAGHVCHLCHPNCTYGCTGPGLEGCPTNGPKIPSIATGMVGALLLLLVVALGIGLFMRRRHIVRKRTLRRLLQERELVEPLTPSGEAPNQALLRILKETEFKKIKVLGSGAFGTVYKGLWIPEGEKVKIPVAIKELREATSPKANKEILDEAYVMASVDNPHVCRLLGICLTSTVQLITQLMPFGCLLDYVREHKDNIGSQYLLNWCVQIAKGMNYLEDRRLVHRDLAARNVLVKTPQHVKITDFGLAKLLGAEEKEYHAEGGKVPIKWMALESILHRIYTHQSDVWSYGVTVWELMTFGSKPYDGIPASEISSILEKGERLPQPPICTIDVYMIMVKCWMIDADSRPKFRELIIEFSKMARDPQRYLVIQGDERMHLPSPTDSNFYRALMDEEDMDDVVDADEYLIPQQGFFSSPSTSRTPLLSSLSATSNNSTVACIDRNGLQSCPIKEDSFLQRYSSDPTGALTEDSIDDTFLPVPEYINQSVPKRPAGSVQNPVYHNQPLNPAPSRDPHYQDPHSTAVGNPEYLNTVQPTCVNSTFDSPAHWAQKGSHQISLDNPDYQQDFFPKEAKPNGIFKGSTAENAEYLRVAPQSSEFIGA

As to `C=CC(=O)N1CCN(c2ccc3ncnc(Nc4cc(C)c(Oc5ccc6c(c5)nnn6C)cc4OC(F)(F)F)c3n2)C[C@H]1C` [Compound 317, (R)-1-(2-methyl-4-(4-((5-methyl-4-((1-methyl-1H-benzo[d][1,2,3]triazol-5-yl)oxy)-2-(trifluoromethoxy)phenyl)amino)py-rido[3,2-d]pyrimidin-6-yl)piperazin-1-yl)prop-2-en-1-one], the IC50 against ErbB2 V777L and on EGFR WT was 100 to 500 nM in each case.
`C=CC(=O)N1C[C@H]2CN(c3ncc4ncnc(Nc5ccc(Oc6ccc7c(c6)nnn7C)c(C)c5)c4n3)C[C@H]21` [Compound 243, cis-1-((1r,5s)-3-(8-((3-methyl-4-((1-methyl-1H-benzo[d][1,2,3]triazol-5-yl)oxy)phenyl)amino)pyrimido[5,4-d]pyrimidin-2-yl)-3,6-diazabicyclo[3.2.0]heptan-6-yl)prop-2-en-1-one]: the concentration for half-maximal inhibition (IC50) against ErbB2 V777L and against EGFR WT was 100 to 500 nM each time.
On to `C=CC(=O)N1CCN(c2ccc3ncnc(Nc4ccc(Oc5cc6ncn(C)c6nc5C)c(C)c4)c3n2)C[C@H]1C` [Compound 247, (R)-1-(4-(4-((4-((3,5-dimethyl-3H-imidazo[4,5-b]pyridin-6-yl)oxy)-3-methylphenyl)amino)pyrido[3,2-d]pyrimidin-6-yl)-2-methylpiperazin-1-yl)prop-2-en-1-one], for which the IC50 against ErbB2 V777L lay in the range of 50 to 100 nM; on EGFR WT, 500 to 1000 nM.
For `C=CC(=O)N1CCN(c2ccc3ncnc(Nc4cc(C)c(Oc5ccc6c(c5)ncn6C(F)F)cc4OC)c3n2)C[C@H]1C` [Compound 307, (R)-1-(4-(4-((4-((1-(difluoromethyl)-1H-benzo[d]imidazol-5-yl)oxy)-2-methoxy-5-methylphenyl)amino)pyrido[3,2-d]pyrimidin-6-yl)-2-methylpiperazin-1-yl)prop-2-en-1-one], in that order: 100 to 500 nM and 100 to 500 nM.
For `C=CC(=O)N1CCN(c2ccc3ncnc(Nc4c(OC)cc(Oc5ccc6c(c5)nnn6C)c(C)c4F)c3n2)C[C@H]1C` [Compound 256, (R)-1-(4-(4-((2-fluoro-6-methoxy-3-methyl-4-((1-methyl-1H-benzo[d][1,2,3]triazol-5-yl)oxy)phenyl)amino)pyrido[3,2-d]pyrimidin-6-yl)-2-methylpiperazin-1-yl)prop-2-en-1-one], in that order: 100 to 500 nM and 100 to 500 nM.
On to `C=CC(=O)N1C[C@@H]2C[C@H]1CN(c1ncc3ncnc(Nc4ccc(Oc5cc(F)c6c(c5)ncn6C)c(C)c4F)c3n1)C2` [Compound 175, 1-((1R,5S)-3-(8-((2-fluoro-4-((7-fluoro-1-methyl-1H-benzo[d]imidazol-5-y1)oxy)-3-methylphenyl)amino)pyrimido[5,4-d]pyrimidin-2-yl)-3,6-diazabicyclo[3.2.1]octan-6-yl)prop-2-en-1-one], for which the results for the IC50 against ErbB2 V777L and against EGFR WT were 100 to 500 nM and 50 to 100 nM, respectively.
For `C=CC(=O)N1C[C@@H]2CCN(c3ccc4ncnc(Nc5ccc(Oc6ccc7c(c6)nnn7C)c(C)c5)c4n3)[C@@H]2C1` (stereo in doubt) [Compound 314, 1-(1-(4-((3-methyl-4-((1-methyl-1H-benzo[d][1,2,3]triazol-5-yl)oxy)phenyl)amino)pyrido[3,2-d]pyrimidin-6-yl)hexahydropyrrolo[3,4-b]pyrrol-5(1H)-y1)prop-2-en-1-one], in that order: 50 to 100 nM and 100 to 500 nM.
With `C=CC(=O)N1C2CCCC1CC(c1ccc3ncnc(Nc4cc(C)c(Oc5ccc6c(c5)nnn6C)cc4OC)c3n1)C2` (stereo not drawn) [Compound 401, 1-(3-(4-((2-methoxy-5-methyl-4-((1-methyl-1H-benzo[d][1,2,3]triazol-5-yl)oxy)phenyl)amino)pyrido[3,2-d]pyrimidin-6-yl)-9-azabicyclo[3.3.1]nonan-9-yl)prop-2-en-1-one trifluoroacetatexc], the values for the IC50 against ErbB2 V777L and at EGFR WT were 50 to 100 nM and 100 to 500 nM, respectively.
For `C=CC(=O)N1CCN(c2nc3c(Nc4ccc(Oc5ccc6c(c5)nnn6C)c(C)c4)ncnc3cc2C)CC1` [Compound 374, 1-(4-(7-methyl-4-((3-methyl-4-((1-methyl-H-benzo[d][1,2,3]triazol-5-yl)oxy)phenyl)amino)pyrido[3,2-d]pyrimidin-6-yl)piperazin-1-yl)prop-2-en-1-one] the same measures were 100 to 500 nM and 500 to 1000 nM.
Turning to `C=C1CCN([C@@H]2CCN(c3ncc4ncnc(Nc5ccc(Oc6ccn7ncnc7c6)c(C)c5)c4n3)C2)C1=O` [Compound 238, (R)-1′-(8-((4-([1,2,4]triazolo[1,5-a]pyridin-7-yloxy)-3-methylphenyl)amino)pyrimido[5,4-d]pyrimidin-2-yl)-3-methylene-[1,3′-bipyrrolidin]-2-one], the IC50 at ErbB2 V777L was 100 to 500 nM; against EGFR WT, not below 1000 nM.
As for `C=CC(=O)N1CCN(c2ccc3ncnc(Nc4cc(C)c(Oc5ccc6c(c5)ncn6C(F)F)cc4OC)c3n2)CC1` [Compound 370, 1-(4-(4-((4-((1-(difluoromethyl)-1H-benzo[d]imidazol-5-yl)oxy)-2-methoxy-5-methylphenyl)amino)pyrido[3,2-d]pyrimidin-6-yl)piperazin-1-yl)prop-2-en-1-one], the results for the IC50 on ErbB2 V777L and at EGFR WT were 50 to 100 nM and 100 to 500 nM, respectively.
For `C=CC(=O)N1CCN(c2ccc3ncnc(Nc4c(OC)cc(Oc5ccc6c(c5)nnn6C)c(C)c4F)c3n2)CC1` [Compound 251, 1-(4-(4-((2-fluoro-6-methoxy-3-methyl-4-((1-methyl-1H-benzo[d][1,2,3]triazol-5-yl)oxy)phenyl)amino)pyrido[3,2-d]pyrimidin-6-yl)piperazin-1-yl)prop-2-en-1-one] the same measures were 100 to 500 nM and 100 to 500 nM.
Take `C=C(F)C(=O)N1CCN(c2ccc3ncnc(Nc4ccc(Oc5ccc6c(c5)nnn6C)c(C)c4)c3n2)C[C@H]1COC` [Compound 362, (S)-2-fluoro-1-(2-(methoxymethyl)-4-(4-((3-methyl-4-((1-methyl-1H-benzo[d][1,2,3]triazol-5-yl)oxy)phenyl)amino)pyrido[3,2-d]pyrimidin-6-yl)piperazin-1-yl)prop-2-en-1-one]: the IC50 at ErbB2 V777L is 500 to 1000 nM; on EGFR WT, not below 1000 nM.
Turning to `C=CC(=O)N1CCN(c2ncc3ncnc(Nc4c(OC)cc(Oc5ccc6c(c5)nnn6C)c(C)c4F)c3n2)CC1` [Compound 138, 1-(4-(8-((2-fluoro-6-methoxy-3-methyl-4-((1-methyl-1H-benzo[d][1,2,3]triazol-5-yl)oxy)phenyl)amino)pyrimido[5,4-d]pyrimidin-2-yl)piperazin-1-yl)prop-2-en-1-one], the IC50 at ErbB2 V777L and at EGFR WT was 100 to 500 nM throughout.
With `C=CC(=O)N1[C@@H]2CC[C@H]1C[C@@H](Oc1ncc3ncnc(Nc4ccc(Oc5ccc6c(c5)ncn6C)c(C)c4)c3n1)C2` [Compound 391, 1-((1R,3r,5S)-3-((8-((3-methyl-4-((1-methyl-1H-benzo[d]imidazol-5-yl)oxy)phenyl)amino)pyrimido[5,4-d]pyrimidin-2-yl)oxy)-8-azabicyclo[3.2.1]octan-8-yl)prop-2-en-1-one], the IC50 against ErbB2 V777L and at EGFR WT was 500 to 1000 nM throughout.
Turning to `Cc1c(Oc2ccc3c(c2)nnn3C)ccc(Nc2ncnc3cnc(N4CCN(C(=O)/C=C/CN5CC(F)C5)CC4)nc23)c1F` [Compound 59, (E)-1-(4-(8-((2-fluoro-3-methyl-4-((1-methyl-1H-benzo[d][1,2,3]triazol-5-yl)oxy)phenyl)amino)pyrimido [5,4-d]pyrimidin-2-yl)piperazin-1-yl)-4-(3-fluoroazetidin-1-yl)but-2-en-1-one], the IC50 against ErbB2 V777L and at EGFR WT was 100 to 500 nM each time.
On to `COC/C=C/C(=O)N1CCN(c2ncc3ncnc(Nc4ccc(Oc5ccc6c(c5)nnn6C)c(C)c4)c3n2)CC1` [Compound 56, (E)-4-methoxy-1-(4-(8-((3-methyl-4-((1-methyl-1H-benzo[d][1,2,3]triazol-5-yl)oxy)phenyl)amino)pyrimido [5,4-d]pyrimidin-2-yl)piperazin-1-yl) but-2-en-1-one], for which the figures for the IC50 against ErbB2 V777L and at EGFR WT were 100 to 500 nM and 500 to 1000 nM, respectively.
For `C=CC(=O)N[C@@H]1CCCN(c2ncc3ncnc(Nc4ccc(Oc5ccc6c(c5)nnn6C)c(C)c4F)c3n2)C1` [Compound 157, (R)-N-(1-(8-((2-fluoro-3-methyl-4-((1-methyl-1H-benzo[d][1,2,3]triazol-5-yl)oxy)phenyl)amino)pyrimido[5,4-d]pyrimidin-2-yl)piperidin-3-yl)acrylamide], in that order: 50 to 100 nM and 100 to 500 nM.
For `C=CC(=O)N(C)[C@H]1C[C@H](Oc2ncc3ncnc(Nc4ccc(Oc5cc(F)c6c(c5)ncn6C)c(C)c4)c3n2)C1` [Compound 386, N-((1r,3r)-3-((8-((4-((7-fluoro-1-methyl-1H-benzo[d]imidazol-5-yl)oxy)-3-methylphenyl)amino)pyrimido[5,4-d]pyrimidin-2-yl)oxy)cyclobutyl)-N-methylacrylamide], in that order: 50 to 100 nM and 100 to 500 nM.
As to `C=CC(=O)N1CCN(c2ncc3ncnc(Nc4ccc(Oc5ccc6c(c5)nnn6C)c(C)c4F)c3c2F)CC1` [Compound 103, 1-(4-(5-fluoro-4-((2-fluoro-3-methyl-4-((1-methyl-1H-benzo[d][1,2,3]triazol-5-yl)oxy)phenyl)amino)pyrido[3,4-d]pyrimidin-6-yl)piperazin-1-yl)prop-2-en-1-one], the IC50 at ErbB2 V777L and on EGFR WT was 100 to 500 nM in each case.
In the case of `C=CC(=O)N1CCN(c2ncc3ncnc(Nc4ccc(Oc5cnc6c(c5)ncn6C(F)F)c(C)c4F)c3n2)C[C@H]1C` [Compound 177, (R)-1-(4-(8-((4-((3-(difluoromethyl)-3H-imidazo[4,5-b]pyridin-6-yl)oxy)-2-fluoro-3-methylphenyl)amino)pyrimido[5,4-d]pyrimidin-2-y1)-2-methylpiperazin-1-yl)prop-2-en-1-one], the results for the half-inhibitory concentration (IC50) against ErbB2 V777L and against EGFR WT were 100 to 500 nM and less than 50 nM, respectively.
